Test results published in US20120270237A9, “METHODS FOR THE IDENTIFICATION OF KINASE INTERACTING MOLECULES AND FOR THE PURIFICATION OF KINASE PROTEINS” (Cellzone AG, priority 2009, published 2012).

Experiments:
Assay in all cases: Kinobeads competition binding, HL60 cell lysate
Parameters in all cases: endogenous in cells; host or cells: HL60 cells
Conditions in all cases: 10 μM free compound
[1] = target: AMPKa1 (Homo sapiens, UniProt Q13131)
Description: (§1) To one aliquot of cell lysate 10 μM of the free compound (FIG. 3, CZC31326) was added and allowed to bind to proteins in the lysate. Then the affinity matrix with the immobilized compound (Example 1) was added to capture proteins that were not interacting with the previously added free compound. Beads were separated from the lysate and bead bound proteins were eluted in SDS sample buffer and subsequently separated by SDS-Polyacrylamide gel electrophoresis (FIG. 4). Suitable gel bands were cut out and subjected to in-gel proteolytic digestion with trypsin. The second lysate aliquot was processed identically, however no free compound was added (DMSO solvent control). Peptides originating from samples 1 and 2 were labeled with iTRAQ reagents (iTRAQ 114 and iTRAQ 117) and the combined samples were analyzed with a nano-flow liquid chromatography system coupled online to a tandem mass spectrometer (LC-MS/MS) experiment followed by iTRAQ reporter ion quantification in the MS/MS spectra (Ross et al., 2004. Mol. Cell. Proteomics 3(12):1154-1169). Further experimental protocols can be found in WO2006/134056 and a previous publication (Bantscheff et al., 2007. Nature Biotechnology 25, 1035-1044). Sepharose-beads with the immobilized compound (100 μl beads per pull-down experiment) were equilibrated in lysis buffer and incubated with a cell lysate sample containing 50 mg of protein on an end-over-end shaker (Roto Shake Genie, Scientific Industries Inc.) for 2 hours at 4° C. Beads were collected, transferred to Mobicol-columns (MoBiTech 10055) and washed with 10 ml lysis buffer containing 0.4% NP40 detergent, followed by 5 ml lysis buffer containing 0.2% detergent. To elute bound proteins, 60 μl 2×SDS sample buffer was added to the column. The column was incubated for 30 minutes at 50° C. and the eluate was transferred to a siliconized microfuge tube by centrifugation. Proteins were then alkylated with 108 mM iodoacetamid. Proteins were then separated by SDS-Polyacrylamide electrophoresis (SDS-PAGE). The peptide extracts of samples treated with 10 μM of free compound (CZC31326) and the solvent control (0.5% DMSO) were treated with different variants of the isobaric tagging reagent (iTRAQ Reagents Multiplex Kit, part number 4352135, Applied Biosystems, Foster City, Calif., USA). The iTRAQ reagents are a set of multiplexed, amine-specific, stable isotope reagents that can label peptides on amino groups in up to four different biological samples enabling simultaneous identification and quantitation of peptides. The iTRAQ reagents were used according to instructions provided by the manufacturer. The samples were resuspended in 10 μl 50 mM TEAB solution, pH 8.5 and 10 μl ethanol were added. The iTRAQ reagent was dissolved in 120 μl ethanol and 10 μl of reagent solution were added to the sample. The labeling reaction was performed at room temperature for one hour on a horizontal shaker and stopped by adding 5 μl of 100 mM TEAB and 100 mM glycine in water. The two labeled sampled were then combined, dried in a vacuum centrifuge and resuspended in 10 μl of 0.1% formic acid in water. Relative protein quantitation was performed using peak areas of iTRAQ reporter ion signals essentially as described in an earlier publication (Bantscheff et al., 2007. Nature Biotechnology 25, 1035-1044).

[2] = target: CDK5 (Homo sapiens, UniProt Q00535)
Description: as §1

[3] = target: RSK3 (Homo sapiens, UniProt Q15349)
Description: as §1

[4] = target: BIKE (Homo sapiens, UniProt Q9NSY1)
Description: as §1

[5] = target: T1, AurA (Homo sapiens, UniProt O14965)
T1 sequence (O14965 1-403): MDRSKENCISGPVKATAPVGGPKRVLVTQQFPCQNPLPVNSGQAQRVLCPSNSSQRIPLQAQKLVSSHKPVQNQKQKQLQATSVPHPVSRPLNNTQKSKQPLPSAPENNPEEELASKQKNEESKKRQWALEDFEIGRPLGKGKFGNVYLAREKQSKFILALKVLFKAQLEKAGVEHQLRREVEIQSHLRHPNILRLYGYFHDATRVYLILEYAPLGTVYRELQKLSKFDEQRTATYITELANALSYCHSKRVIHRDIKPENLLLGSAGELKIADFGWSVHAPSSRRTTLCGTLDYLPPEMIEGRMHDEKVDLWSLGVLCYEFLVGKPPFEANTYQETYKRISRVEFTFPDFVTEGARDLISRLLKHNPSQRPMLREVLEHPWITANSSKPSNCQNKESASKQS
Description: as §1

[6] = target: CHK1 (Homo sapiens, UniProt O14757)
Description: as §1

[7] = target: CaMK2g (Homo sapiens, UniProt Q13555)
Description: as §1

Chain of CDK5 (Q00535 whole entry): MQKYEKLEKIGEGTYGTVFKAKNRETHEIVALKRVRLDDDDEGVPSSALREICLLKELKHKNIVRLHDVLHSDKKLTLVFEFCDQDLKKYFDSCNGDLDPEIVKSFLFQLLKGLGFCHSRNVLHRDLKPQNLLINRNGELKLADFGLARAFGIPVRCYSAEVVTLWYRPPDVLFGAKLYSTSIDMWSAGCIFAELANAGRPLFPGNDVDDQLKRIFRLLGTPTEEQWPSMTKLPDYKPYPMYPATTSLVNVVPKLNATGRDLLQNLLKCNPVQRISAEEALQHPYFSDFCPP
Chain of CaMK2g (Q13555 whole entry): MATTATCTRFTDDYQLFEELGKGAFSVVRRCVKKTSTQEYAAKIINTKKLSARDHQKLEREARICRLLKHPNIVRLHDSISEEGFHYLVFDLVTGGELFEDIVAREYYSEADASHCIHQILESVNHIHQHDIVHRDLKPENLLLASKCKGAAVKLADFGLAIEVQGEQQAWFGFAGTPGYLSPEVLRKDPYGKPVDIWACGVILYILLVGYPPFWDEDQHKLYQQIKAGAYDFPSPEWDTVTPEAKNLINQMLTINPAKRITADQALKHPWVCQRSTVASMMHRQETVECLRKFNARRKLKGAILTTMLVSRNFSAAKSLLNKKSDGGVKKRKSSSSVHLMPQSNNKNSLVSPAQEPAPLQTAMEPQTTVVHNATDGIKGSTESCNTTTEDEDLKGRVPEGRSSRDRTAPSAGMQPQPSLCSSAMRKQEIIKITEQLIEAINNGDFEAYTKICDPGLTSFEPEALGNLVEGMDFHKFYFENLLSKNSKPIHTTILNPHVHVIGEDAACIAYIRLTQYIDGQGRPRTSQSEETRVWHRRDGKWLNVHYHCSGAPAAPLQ
Chain of CHK1 (O14757 whole entry): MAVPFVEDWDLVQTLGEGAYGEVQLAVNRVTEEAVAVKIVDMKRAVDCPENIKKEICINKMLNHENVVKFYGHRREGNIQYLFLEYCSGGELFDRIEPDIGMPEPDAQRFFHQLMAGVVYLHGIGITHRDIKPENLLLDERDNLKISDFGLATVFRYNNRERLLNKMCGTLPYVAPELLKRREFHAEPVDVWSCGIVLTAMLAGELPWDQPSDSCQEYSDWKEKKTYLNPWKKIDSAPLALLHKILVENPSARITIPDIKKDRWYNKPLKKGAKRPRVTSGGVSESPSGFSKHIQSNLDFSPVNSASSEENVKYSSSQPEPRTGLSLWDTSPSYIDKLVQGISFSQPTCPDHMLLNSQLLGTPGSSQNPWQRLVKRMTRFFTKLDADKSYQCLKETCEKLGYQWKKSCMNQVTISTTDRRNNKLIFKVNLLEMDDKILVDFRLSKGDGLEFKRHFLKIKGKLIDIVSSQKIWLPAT
Chain of BIKE (Q9NSY1 whole entry): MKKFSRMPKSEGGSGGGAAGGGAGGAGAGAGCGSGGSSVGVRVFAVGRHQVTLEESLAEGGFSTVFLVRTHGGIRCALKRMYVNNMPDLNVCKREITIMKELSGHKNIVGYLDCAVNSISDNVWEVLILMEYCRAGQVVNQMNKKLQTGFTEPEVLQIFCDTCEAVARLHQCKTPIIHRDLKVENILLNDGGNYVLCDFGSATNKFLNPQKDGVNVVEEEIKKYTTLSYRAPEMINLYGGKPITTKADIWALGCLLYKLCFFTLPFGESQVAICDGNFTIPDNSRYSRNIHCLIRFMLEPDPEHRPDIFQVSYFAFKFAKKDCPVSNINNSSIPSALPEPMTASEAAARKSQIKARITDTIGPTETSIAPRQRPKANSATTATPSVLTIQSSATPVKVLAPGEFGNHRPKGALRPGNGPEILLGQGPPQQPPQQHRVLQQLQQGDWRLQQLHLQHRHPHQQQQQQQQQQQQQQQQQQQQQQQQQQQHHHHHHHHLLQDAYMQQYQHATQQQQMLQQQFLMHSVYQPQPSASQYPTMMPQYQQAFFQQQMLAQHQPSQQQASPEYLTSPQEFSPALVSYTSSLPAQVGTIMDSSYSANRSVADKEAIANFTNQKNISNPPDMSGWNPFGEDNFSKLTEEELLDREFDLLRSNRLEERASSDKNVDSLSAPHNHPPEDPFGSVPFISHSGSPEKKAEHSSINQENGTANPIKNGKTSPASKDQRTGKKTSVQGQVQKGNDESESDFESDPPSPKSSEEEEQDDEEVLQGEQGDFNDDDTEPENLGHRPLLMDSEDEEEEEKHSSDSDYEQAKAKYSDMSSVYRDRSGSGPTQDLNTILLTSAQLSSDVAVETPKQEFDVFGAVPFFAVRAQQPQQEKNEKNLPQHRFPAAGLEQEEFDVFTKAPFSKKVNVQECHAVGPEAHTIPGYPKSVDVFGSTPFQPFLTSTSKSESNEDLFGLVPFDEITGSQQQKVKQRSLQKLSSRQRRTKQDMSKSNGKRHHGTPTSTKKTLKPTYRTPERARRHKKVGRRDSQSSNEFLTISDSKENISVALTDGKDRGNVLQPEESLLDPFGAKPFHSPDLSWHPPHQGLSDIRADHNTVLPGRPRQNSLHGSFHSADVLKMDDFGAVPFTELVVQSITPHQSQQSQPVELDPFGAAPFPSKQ
Chain of AMPKa1 (Q13131 whole entry): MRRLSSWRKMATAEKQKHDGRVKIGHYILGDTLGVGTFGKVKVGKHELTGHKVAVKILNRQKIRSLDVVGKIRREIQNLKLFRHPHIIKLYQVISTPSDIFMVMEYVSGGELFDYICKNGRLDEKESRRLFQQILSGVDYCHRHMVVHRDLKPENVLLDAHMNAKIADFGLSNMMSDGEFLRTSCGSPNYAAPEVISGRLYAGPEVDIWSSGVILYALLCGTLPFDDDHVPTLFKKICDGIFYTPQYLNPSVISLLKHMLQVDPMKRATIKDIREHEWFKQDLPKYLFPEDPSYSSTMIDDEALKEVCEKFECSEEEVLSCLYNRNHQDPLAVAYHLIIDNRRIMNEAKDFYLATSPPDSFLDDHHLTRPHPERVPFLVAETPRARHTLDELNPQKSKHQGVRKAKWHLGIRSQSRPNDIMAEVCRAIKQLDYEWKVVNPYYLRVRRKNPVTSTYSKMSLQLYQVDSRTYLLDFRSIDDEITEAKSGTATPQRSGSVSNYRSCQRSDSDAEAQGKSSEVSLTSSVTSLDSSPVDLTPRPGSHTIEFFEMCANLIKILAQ
Chain of AMPKa1 (Q9Y478 2-270 partner limits assumed): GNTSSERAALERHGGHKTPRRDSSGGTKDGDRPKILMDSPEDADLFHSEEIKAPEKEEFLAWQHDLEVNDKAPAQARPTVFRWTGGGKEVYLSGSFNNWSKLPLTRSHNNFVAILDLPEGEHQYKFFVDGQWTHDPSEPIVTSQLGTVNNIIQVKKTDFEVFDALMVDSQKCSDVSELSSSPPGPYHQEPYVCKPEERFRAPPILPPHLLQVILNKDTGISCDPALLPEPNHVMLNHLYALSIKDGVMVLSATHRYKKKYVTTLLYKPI
Chain of AMPKa1 (P54619 whole entry partner): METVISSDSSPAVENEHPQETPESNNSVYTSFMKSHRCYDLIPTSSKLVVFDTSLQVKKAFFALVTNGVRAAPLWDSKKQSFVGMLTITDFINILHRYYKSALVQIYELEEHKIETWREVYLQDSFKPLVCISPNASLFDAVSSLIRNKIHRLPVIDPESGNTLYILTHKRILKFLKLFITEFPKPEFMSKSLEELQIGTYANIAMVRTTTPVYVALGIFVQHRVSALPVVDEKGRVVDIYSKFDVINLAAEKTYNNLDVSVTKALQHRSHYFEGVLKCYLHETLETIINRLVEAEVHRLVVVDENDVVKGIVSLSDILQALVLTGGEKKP
Chain of RSK3 (Q15349 whole entry): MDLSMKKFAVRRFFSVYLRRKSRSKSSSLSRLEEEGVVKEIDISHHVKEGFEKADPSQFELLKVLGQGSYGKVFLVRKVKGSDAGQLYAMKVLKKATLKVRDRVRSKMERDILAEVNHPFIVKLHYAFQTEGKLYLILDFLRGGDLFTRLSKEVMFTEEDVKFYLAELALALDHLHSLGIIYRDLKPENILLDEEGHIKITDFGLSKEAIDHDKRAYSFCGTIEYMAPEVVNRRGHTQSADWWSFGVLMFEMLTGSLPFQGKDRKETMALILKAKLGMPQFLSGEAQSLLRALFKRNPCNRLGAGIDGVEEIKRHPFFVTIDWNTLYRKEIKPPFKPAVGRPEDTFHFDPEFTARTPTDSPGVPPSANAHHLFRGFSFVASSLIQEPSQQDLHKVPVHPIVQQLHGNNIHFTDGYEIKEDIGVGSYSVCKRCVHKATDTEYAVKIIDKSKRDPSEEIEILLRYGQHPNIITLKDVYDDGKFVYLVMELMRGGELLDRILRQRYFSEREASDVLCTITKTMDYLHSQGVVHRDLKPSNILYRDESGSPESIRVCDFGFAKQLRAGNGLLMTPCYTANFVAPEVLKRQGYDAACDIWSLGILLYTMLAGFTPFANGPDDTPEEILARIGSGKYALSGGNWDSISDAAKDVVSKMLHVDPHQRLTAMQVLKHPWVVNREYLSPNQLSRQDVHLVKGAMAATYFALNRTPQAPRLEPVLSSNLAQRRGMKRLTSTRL

inhibition at 10 µM [1]: 97.7% | inhibition at 10 µM [2]: 95.2% | inhibition at 10 µM [3]: 96.9% | inhibition at 10 µM [4]: 97.6% | inhibition at 10 µM [5]: 96.6% | Competition % [6]: 95.7% | inhibition at 10 µM [7]: 90.4%
Structure (SMILES): CS(=O)(=O)Nc1ccccc1Nc1nc(Nc2cccc(OCCN)c2)ncc1Cl [CZC31326, N-(2-(2-(3-(2-aminoethoxy)phenylamino)-5-chloropyrimidin-4-ylamino)phenyl)methanesulfonamide]
